# Experimental data as given in US20120172384A1, “HETEROCYCLYLAMINOPYRIMIDINES AS KINASE INHIBITORS” (priority 2009, published 2012).
# pIC50: −log10 of the molar value.
# Molecular target: T1, JAK3 (Homo sapiens, UniProt P52333)
# T1 construct: endogenous in cells
# T1 sequence (P52333 1-1124): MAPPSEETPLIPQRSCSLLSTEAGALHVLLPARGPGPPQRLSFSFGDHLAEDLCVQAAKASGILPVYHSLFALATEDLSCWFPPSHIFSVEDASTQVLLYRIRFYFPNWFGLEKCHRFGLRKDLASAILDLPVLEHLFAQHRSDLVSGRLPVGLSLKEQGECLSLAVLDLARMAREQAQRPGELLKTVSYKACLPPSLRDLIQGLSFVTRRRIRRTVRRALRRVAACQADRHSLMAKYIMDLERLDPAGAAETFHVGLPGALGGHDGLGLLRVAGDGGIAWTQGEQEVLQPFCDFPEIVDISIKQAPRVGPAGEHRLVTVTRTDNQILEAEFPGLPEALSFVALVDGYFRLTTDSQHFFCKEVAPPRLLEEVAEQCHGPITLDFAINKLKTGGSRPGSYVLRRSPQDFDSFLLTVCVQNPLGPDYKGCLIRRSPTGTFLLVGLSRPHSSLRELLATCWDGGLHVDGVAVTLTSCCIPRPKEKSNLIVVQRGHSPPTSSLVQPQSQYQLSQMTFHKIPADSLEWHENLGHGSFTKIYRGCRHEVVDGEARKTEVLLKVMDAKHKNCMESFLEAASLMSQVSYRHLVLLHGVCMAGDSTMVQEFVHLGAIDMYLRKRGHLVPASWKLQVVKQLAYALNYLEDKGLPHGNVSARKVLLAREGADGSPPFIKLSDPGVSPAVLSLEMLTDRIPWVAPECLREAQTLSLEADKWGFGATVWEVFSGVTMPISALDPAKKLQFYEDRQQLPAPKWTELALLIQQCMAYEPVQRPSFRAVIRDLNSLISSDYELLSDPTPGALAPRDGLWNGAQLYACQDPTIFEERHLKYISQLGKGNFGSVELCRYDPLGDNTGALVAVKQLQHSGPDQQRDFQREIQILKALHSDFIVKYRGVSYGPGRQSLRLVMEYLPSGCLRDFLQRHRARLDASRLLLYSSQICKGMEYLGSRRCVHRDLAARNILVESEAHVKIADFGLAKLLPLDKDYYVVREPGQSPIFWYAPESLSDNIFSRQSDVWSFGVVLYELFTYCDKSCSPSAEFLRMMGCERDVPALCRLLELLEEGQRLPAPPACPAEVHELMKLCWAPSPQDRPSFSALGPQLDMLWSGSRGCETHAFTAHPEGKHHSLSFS
# Test: JAK3 kinobeads assay
# Assay type: binding
# Conditions: cell lysate, dot blot with JAK3 specific antibody
# Procedure: The compounds of the present invention as described in the previous examples were tested in the ZAP-70 kinobeads assay as described (EP-A 1862802 and WO-A 2007/137867). Briefly, test compounds (at various concentrations) and the affinity matrix with the immobilized aminopyrido-pyrimidine ligand 24 are added to cell lysate aliquots and allowed to bind to the proteins in the lysate sample. After the incubation time the beads with captured proteins are separated from the lysate. Bound proteins are then eluted and the presence ZAP-70 is detected and quantified using a specific antibody in a dot blot procedure and the Odyssey infrared detection system.
# Compounds were tested by the procedure described in Example 102 but using a JAK3 specific antibody (Cell Signaling Technology, Inc., Danvers, US, catalogue number 3775) instead of a ZAP70 antibody.
row,pIC50,Structure (SMILES)
1,6.00 to 7.00,"COc1ccc(Nc2nc(Nc3cc(C4CC4)nn3C)ncc2Cl)c(NS(C)(=O)=O)c1 [Example 9, N-(2-(5-chloro-2-(3-cyclopropyl-1-methyl-1H-pyrazol-5-ylamino)pyrimidin-4-ylamino)-5-methoxyphenyl)methanesulfonamide]"
2,5.00 to 6.00,"COc1ccc(Nc2nc(Nc3cc(C(C)(C)C)nn3C)ncc2Cl)c(NS(C)(=O)=O)c1 [Example 10, N-(2-(2-(3-tert-butyl-1-methyl-1H-pyrazol-5-ylamino)-5-chloropyrimidin-4-ylamino)-5-methoxyphenyl)methanesulfonamide]"
3,≥ 7.00,"CS(=O)(=O)Nc1ccccc1Nc1nc(Nc2cn[nH]c2)ncc1Cl [Example 25, N-(2-(2-(1H-pyrazol-4-ylamino)-5-chloropyrimidin-4-ylamino)phenyl)methanesulfonamide]"
4,≥ 7.00,"CCCn1ccc(Nc2ncc(Cl)c(Nc3ccccc3NS(C)(=O)=O)n2)n1 [Example 46, N-(2-((5-chloro-2-((1-propyl-1H-pyrazol-3-yl)amino)pyrimidin-4-yl)amino)phenyl)methanesulfonamide]"
5,6.00 to 7.00,"COc1ccc(Nc2nc(Nc3cc(C)n(C)n3)ncc2F)c(NS(C)(=O)=O)c1 [Example 47, N-(2-((2-((1,5-dimethyl-1H-pyrazol-3-yl)amino)-5-fluoropyrimidin-4-yl)amino)-5-methoxyphenyl)methanesulfonamide]"
6,6.00 to 7.00,"COc1ccc(Nc2nc(Nc3ccn(C(C)C)n3)ncc2F)c(NS(C)(=O)=O)c1 [Example 48, N-(2-((5-fluoro-2-((1-isopropyl-1H-pyrazol-3-yl)amino)pyrimidin-4-yl)amino)-5-methoxyphenyl)methanesulfonamide]"
7,≥ 7.00,"CC(C)n1ccc(Nc2ncc(Br)c(Nc3ccccc3NS(C)(=O)=O)n2)n1 [Example 49, N-(2-((5-bromo-2-((1-isopropyl-1H-pyrazol-3-yl)amino)pyrimidin-4-yl)amino)phenyl)methanesulfonamide]"
8,≥ 7.00,"CS(=O)(=O)Nc1ccccc1Nc1nc(Nc2ccon2)ncc1Br [Example 50, N-(2-((5-bromo-2-(isoxazol-3-ylamino)pyrimidin-4-yl)amino)phenyl)methanesulfonamide]"
9,≥ 7.00,"Cc1cc(Nc2ncc(Br)c(Nc3ccccc3NS(C)(=O)=O)n2)nn1C [Example 51, N-(2-((5-bromo-2-((1,5-dimethyl-1H-pyrazol-3-yl)amino)pyrimidin-4-yl)amino)phenyl)methanesulfonamide]"
10,≥ 7.00,"COCCn1cc(Nc2ncc(Cl)c(Nc3ccccc3NS(C)(=O)=O)n2)cn1 [Example 52, N-(2-((5-chloro-2-((1-(2-methoxyethyl)-1H-pyrazol-4-yl)amino)pyrimidin-4-yl)amino)phenyl)methanesulfonamide]"
11,6.00 to 7.00,"Cn1ccc(Nc2ncc(Cl)c(Nc3ccccc3NS(=O)(=O)C3CC3)n2)n1 [Example 53, N-(2-((5-chloro-2-((1-methyl-1H-pyrazol-3-yl)amino)pyrimidin-4-yl)amino)phenyl)cyclopropanesulfonamide]"
12,5.00 to 6.00,"CC(C)n1ccc(Nc2ncc(Cl)c(Nc3ccccc3NS(=O)(=O)C3CC3)n2)n1 [Example 54, N-(2-((5-chloro-2-((1-isopropyl-1H-pyrazol-3-yl)amino)pyrimidin-4-yl)amino)phenyl)cyclopropanesulfonamide]"
13,6.00 to 7.00,"Cc1cc(Nc2ncc(Cl)c(Nc3ccccc3NS(=O)(=O)C3CC3)n2)nn1C [Example 55, N-(2-((5-chloro-2-((1,5-dimethyl-1H-pyrazol-3-yl)amino)pyrimidin-4-yl)amino)phenyl)cyclopropanesulfonamide]"
14,6.00 to 7.00,"CCS(=O)(=O)Nc1ccccc1Nc1nc(Nc2ccn(C)n2)ncc1Cl [Example 56, N-(2-((5-chloro-2-((1-methyl-1H-pyrazol-3-yl)amino)pyrimidin-4-yl)amino)phenyl)ethanesulfonamide]"
15,≥ 7.00,"CCS(=O)(=O)Nc1ccccc1Nc1nc(Nc2cnn(C)c2)ncc1Cl [Example 57, N-(2-((5-chloro-2-((1-methyl-1H-pyrazol-4-yl)amino)pyrimidin-4-yl)amino)phenyl)ethanesulfonamide]"
16,≥ 7.00,"Cn1cc(Nc2ncc(Cl)c(Nc3ccccc3NS(=O)(=O)C3CC3)n2)cn1 [Example 58, N-(2-((5-chloro-2-((1-methyl-1H-pyrazol-4-yl)amino)pyrimidin-4-yl)amino)phenyl)cyclopropanesulfonamide]"
17,≥ 7.00,"CCn1nc(Nc2ncc(Cl)c(Nc3ccccc3NS(C)(=O)=O)n2)cc1C [Example 59, N-(2-((5-chloro-2-((1-ethyl-5-methyl-1H-pyrazol-3-yl)amino)pyrimidin-4-yl)amino)phenyl)methanesulfonamide]"
18,5.00 to 6.00,"CCS(=O)(=O)Nc1ccccc1Nc1nc(Nc2cc(C)n(C)n2)ncc1F [Example 61, N-(2-((2-((1,5-dimethyl-1H-pyrazol-3-yl)amino)-5-fluoropyrimidin-4-yl)amino)phenyl)ethanesulfonamide]"
19,6.00 to 7.00,"CCS(=O)(=O)Nc1ccccc1Nc1nc(Nc2cnn(C)c2)ncc1F [Example 62, N-(2-((5-fluoro-2-((1-methyl-1H-pyrazol-4-yl)amino)pyrimidin-4-yl)amino)phenyl)ethanesulfonamide]"
20,5.00 to 6.00,"CCS(=O)(=O)Nc1ccccc1Nc1nc(Nc2ccn(C)n2)ncc1F [Example 63, N-(2-((5-fluoro-2-((1-methyl-1H-pyrazol-3-yl)amino)pyrimidin-4-yl)amino)phenyl)ethanesulfonamide]"
21,≥ 7.00,"CS(=O)(=O)Nc1ccccc1Nc1nc(Nc2cnn(CCCC#N)c2)ncc1Cl [Example 65, N-(2-((5-chloro-2-((1-(3-cyanopropyl)-1H-pyrazol-4-yl)amino)pyrimidin-4-yl)amino)phenyl)methanesulfonamide]"
22,≥ 7.00,"CS(=O)(=O)Nc1ccccc1Nc1nc(Nc2cnn(CCCC#N)c2)ncc1F [Example 66, N-(2-((2-((1-(3-cyanopropyl)-1H-pyrazol-4-yl)amino)-5-fluoropyrimidin-4-yl)amino)phenyl)methanesulfonamide]"
23,≥ 7.00,"Cn1ccc(Nc2ncc(Cl)c(Nc3cccc(F)c3NS(C)(=O)=O)n2)n1 [Example 70, N-(2-((5-chloro-2-((1-methyl-1H-pyrazol-3-yl)amino)pyrimidin-4-yl)amino)-6-fluorophenyl)methanesulfonamide]"
24,6.00 to 7.00,"Cc1nn(CC(F)F)cc1Nc1ncc(F)c(Nc2ccccc2NS(C)(=O)=O)n1 [Example 72, N-(2-((2-((1-(2,2-difluoroethyl)-3-methyl-1H-pyrazol-4-yl)amino)-5-fluoropyrimidin-4-yl)amino)phenyl)methanesulfonamide]"
25,6.00 to 7.00,"COc1nn(CC(F)F)cc1Nc1ncc(F)c(Nc2ccccc2NS(C)(=O)=O)n1 [Example 73, N-(2-((2-((1-(2,2-difluoroethyl)-3-methoxy-1H-pyrazol-4-yl)amino)-5-fluoropyrimidin-4-yl)amino)phenyl)methanesulfonamide]"
26,5.00 to 6.00,"COc1nn(CC(F)(F)F)cc1Nc1ncc(F)c(Nc2ccccc2NS(C)(=O)=O)n1 [Example 74, N-(2-((5-fluoro-2-((3-methoxy-1-(2,2,2-trifluoroethyl)-1H-pyrazol-4-yl)amino)pyrimidin-4-yl)amino)phenyl)methanesulfonamide]"
27,5.00 to 6.00,"Cc1cc(Nc2ncc(F)c(Nc3ccccc3NS(C)(=O)=O)n2)nn1CC(F)(F)F [Example 75, N-(2-((5-fluoro-2-((5-methyl-1-(2,2,2-trifluoroethyl)-1H-pyrazol-3-yl)amino)pyrimidin-4-yl)amino)phenyl)methanesulfonamide]"
28,6.00 to 7.00,"Cc1cc(Nc2ncc(Cl)c(Nc3cccc(F)c3NS(C)(=O)=O)n2)nn1C [Example 78, N-(2-((5-chloro-2-((1,5-dimethyl-1H-pyrazol-3-yl)amino)pyrimidin-4-yl)amino)-6-fluorophenyl)methanesulfonamide]"
29,6.00 to 7.00,"CCCn1ccc(Nc2ncc(Cl)c(Nc3cccc(F)c3NS(C)(=O)=O)n2)n1 [Example 79, N-(2-((5-chloro-2-((1-propyl-1H-pyrazol-3-yl)amino)pyrimidin-4-yl)amino)-6-fluorophenyl)methanesulfonamide]"
